Consider 13 molecules from PubChem BioAssay (NCI).

Among the test systems are HCT-15 colon; HOP-92 NSCLC; NCI-H522 lung; OVCAR-4 ovarian; OVCAR-8 ovarian; RXF 393 renal; SF-295 CNS; SK-MEL-28 melanoma; SK-MEL-5 melanoma; SK-OV-3 ovarian.
What all share (assay): growth of human tumour cells (NCI), 48 h

Structures are written as SMILES.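 96-well plates; 48 h exposure; 5 concentrations. Endpoints by linear interpolation between flanking doses. Not reached: highest tested concentration assigned. The concentration for full growth arrest is given as TGI.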 Bounds are passed on as bounds.

For `C=C1C(=O)O[C@@H]2[C@H](O)[C@@H](C)[C@@H]3C=CC(=O)[C@@]3(C)[C@H](OC(=O)C=C(C)C)[C@H]12`, the TGI was 0.667 µM with HCT-15 colon; 2.21 µM in the assay with HOP-92 NSCLC; 0.4 µM with NCI-H522 lung; 4.92 µM in the assay on OVCAR-4 ovarian; 8.53 µM in the assay on OVCAR-8 ovarian; 1.33 µM with RXF 393 renal. Besides, the TGI worked out at 7.27 µM with SF-295 CNS, 1.81 µM in the assay on SK-MEL-28 melanoma, 3.78 µM in the assay with SK-MEL-5 melanoma and 7.91 µM with SK-OV-3 ovarian.

For `COc1cc2c(cc1OCCCC(=O)Nc1cc(C(=O)NCCCN(C)C)n(C)n1)N=CC1CCCN1C2=O` (stereo not given), the TGI is greater than 21.5 µM with HCT-15 colon; 13.2 µM with HOP-92 NSCLC; 15.1 µM with NCI-H522 lung; 14.1 µM in the assay on OVCAR-4 ovarian; greater than 24 µM in the assay on OVCAR-8 ovarian; greater than 75.6 µM in the assay with RXF 393 renal. Also, the TGI was greater than 100 µM in the assay with SF-295 CNS, 11.1 µM in the assay on SK-MEL-28 melanoma, 14 µM in the assay on SK-MEL-5 melanoma and greater than 62.3 µM with SK-OV-3 ovarian.

Take `NC1CC(=O)c2sccc21` (stereo not given): the TGI in the assay on HCT-15 colon, in the assay with HOP-92 NSCLC, with NCI-H522 lung, with OVCAR-4 ovarian, in the assay with OVCAR-8 ovarian and in the assay with RXF 393 renal was greater than 100 µM throughout. For the same molecule, the TGI with SF-295 CNS, with SK-MEL-28 melanoma, in the assay with SK-MEL-5 melanoma and in the assay with SK-OV-3 ovarian was greater than 100 µM each time.

For `COc1ccc(-c2cc(-c3cc(F)c(Cl)cc3Cl)on2)cc1OC`, the TGI with HCT-15 colon is greater than 100 µM; in the assay with HOP-92 NSCLC, greater than 100 µM; in the assay with NCI-H522 lung, greater than 100 µM; with OVCAR-4 ovarian, greater than 100 µM; in the assay with OVCAR-8 ovarian, greater than 100 µM; in the assay with RXF 393 renal, 46.6 µM. Besides, the TGI with SF-295 CNS is greater than 100 µM; in the assay with SK-MEL-28 melanoma it was greater than 100 µM; with SK-MEL-5 melanoma it was 43.3 µM; in the assay on SK-OV-3 ovarian, greater than 100 µM.

`Clc1ncc(Cl)c(Cl)n1`: the TGI is 5.99 µM with HCT-15 colon; 3.43 µM in the assay with HOP-92 NSCLC; 5.69 µM with NCI-H522 lung; 3.53 µM in the assay on OVCAR-4 ovarian; 19.3 µM in the assay on OVCAR-8 ovarian; 5.46 µM in the assay on RXF 393 renal. Besides, the TGI in the assay on SF-295 CNS was found to be 26.6 µM; in the assay on SK-MEL-28 melanoma, 10.9 µM; in the assay on SK-MEL-5 melanoma it was 12.7 µM; in the assay on SK-OV-3 ovarian it was 14.3 µM.

Take `O=C1c2ccccc2C(=O)c2c(O)ccc(O)c21`: the TGI in the assay on HCT-15 colon, in the assay with HOP-92 NSCLC, with NCI-H522 lung, with OVCAR-4 ovarian, in the assay with OVCAR-8 ovarian and in the assay on RXF 393 renal was greater than 100 µM throughout. In addition, the TGI in the assay with SF-295 CNS, in the assay on SK-MEL-28 melanoma, in the assay with SK-MEL-5 melanoma and in the assay with SK-OV-3 ovarian was greater than 100 µM each time.

As for `COC(=O)c1cc(C(=CCC[C@H]2CC[C@@]3(C)C(CCC4C3CC[C@@]3(C)C4CC[C@@H]3C(C)CCCC(C)C)C2)c2cc(Cl)c(OC(=O)c3ccccc3)c(C(=O)OC)c2)cc(Cl)c1OC(=O)c1ccccc1` (stereo not given in full), the TGI in the assay with HCT-15 colon, in the assay with HOP-92 NSCLC, in the assay with NCI-H522 lung, in the assay with OVCAR-4 ovarian, in the assay with OVCAR-8 ovarian and in the assay with RXF 393 renal was greater than 10 µM in each case. The TGI with SF-295 CNS, with SK-MEL-28 melanoma, with SK-MEL-5 melanoma and in the assay with SK-OV-3 ovarian was greater than 10 µM each time.

`CCOc1ccc2nc(NC(NC(=O)c3cccnc3)(C(F)(F)F)C(F)(F)F)sc2c1`: the TGI is greater than 100 µM in the assay with HCT-15 colon; 80.6 µM in the assay with HOP-92 NSCLC; 84.2 µM in the assay with NCI-H522 lung; greater than 100 µM in the assay on OVCAR-4 ovarian; 88 µM in the assay with OVCAR-8 ovarian; 61.1 µM in the assay on RXF 393 renal. The TGI in the assay on SF-295 CNS is greater than 100 µM; with SK-MEL-28 melanoma, greater than 100 µM; with SK-MEL-5 melanoma, 49.2 µM; in the assay with SK-OV-3 ovarian, greater than 100 µM.

For the molecule `N=c1c2c(=S)n(-c3ccccc3)c(=S)n(-c3ccccc3)c2nc(SCCN2CCOCC2)n1-c1ccccc1`, the TGI in the assay with HCT-15 colon turned out to be 4.09 µM; in the assay on HOP-92 NSCLC it was 4.12 µM; with NCI-H522 lung, 3.16 µM; with OVCAR-4 ovarian, 3.4 µM; in the assay on OVCAR-8 ovarian, 4.51 µM; in the assay with RXF 393 renal, 3.55 µM. In addition, the TGI amounted to 19.2 µM in the assay on SF-295 CNS, 4.39 µM with SK-MEL-28 melanoma, 6.66 µM with SK-MEL-5 melanoma and 15 µM in the assay on SK-OV-3 ovarian.

Turning to `CC(=O)O[C@H]1C[C@H]2C(=S)Nc3ccccc3C(=S)N2C1`, the TGI with HCT-15 colon, in the assay with HOP-92 NSCLC, in the assay on NCI-H522 lung, with OVCAR-4 ovarian, in the assay on OVCAR-8 ovarian and with RXF 393 renal was greater than 100 µM throughout. In addition, the TGI in the assay on SF-295 CNS, in the assay on SK-MEL-28 melanoma, in the assay on SK-MEL-5 melanoma and with SK-OV-3 ovarian was greater than 100 µM throughout.

Consider `CC1CCc2sc3[nH]c(=S)n(-c4ccccc4)c(=O)c3c2C1` (stereo not given), for which the TGI in the assay on HCT-15 colon, in the assay on HOP-92 NSCLC, in the assay with NCI-H522 lung, with OVCAR-4 ovarian, with OVCAR-8 ovarian and in the assay on RXF 393 renal was greater than 100 µM throughout. The TGI with SF-295 CNS, in the assay on SK-MEL-28 melanoma, in the assay with SK-MEL-5 melanoma and in the assay with SK-OV-3 ovarian was greater than 100 µM in each case.

Regarding `NS(=O)(=O)c1nnc(NS(=O)(=O)c2ccccc2C(=O)O)s1`, the TGI in the assay on HCT-15 colon, in the assay on HOP-92 NSCLC, in the assay with NCI-H522 lung, in the assay with OVCAR-4 ovarian, in the assay with OVCAR-8 ovarian and in the assay with RXF 393 renal was greater than 100 µM in each case. Besides, the TGI with SF-295 CNS, in the assay with SK-MEL-28 melanoma, in the assay on SK-MEL-5 melanoma and in the assay with SK-OV-3 ovarian was greater than 100 µM in each case.

With `CC(=O)OCC1=C(C)C[C@H]([C@@H](COC(C)=O)C2CCC3C4C[C@H]5O[C@]56CC=CC(=O)[C@]6(C)C4CC[C@@]32C)OC1=O` (stereo not given in full), the TGI with HCT-15 colon was determined as 0.296 µM; in the assay on HOP-92 NSCLC, 2.87 µM; in the assay on NCI-H522 lung it was 0.592 µM; in the assay with OVCAR-4 ovarian it was 9.9 µM; with OVCAR-8 ovarian, 0.714 µM; in the assay on RXF 393 renal, 1.12 µM. In addition, the TGI in the assay with SF-295 CNS is 5.59 µM; with SK-MEL-28 melanoma, 1.19 µM; with SK-MEL-5 melanoma, 0.875 µM; with SK-OV-3 ovarian it was 6.93 µM.
